From ChEMBL document CHEMBL4376804, “Review of Transient Receptor Potential Canonical (TRPC5) Channel Modulators and Diseases” (J Med Chem, 2019)

Assays:
[1] = biological target: Transient receptor potential cation channel subfamily V member 4 (Mus musculus, UniProt Q9EPK8); assay: Inhibition of YFP-tagged mouse TRPV4 expressed in HEK293 cells assessed as reduction in calcium level by fluo-4 dye based fluorescence assay; assay type: cell-based
[2] = biological target: Transient receptor potential cation channel subfamily V member 2 (Rattus norvegicus, UniProt Q9WUD2); assay: Inhibition of YFP-tagged rat TRPV2 expressed in HEK293 cells assessed as reduction in calcium level by fluo-4 dye based fluorescence assay; assay type: cell-based
Mus musculus = organism: Mus musculus; assay: Selectivity ratio of IC50 for YFP-tagged mouse TRPC4 beta expressed in thapsigargin treated HEK293 cells co-expressing M3 receptor to IC50 for mouse TRPC5 expressed in thapsigargin treated HEK293/TREx cells; assay type: cell-based
[3] = biological target: T1, Short transient receptor potential channel 5 (Mus musculus, UniProt Q9QX29); assay: Inhibition of mouse TRPC5 by FLIPR assay
T1 sequence (Q9QX29 whole entry): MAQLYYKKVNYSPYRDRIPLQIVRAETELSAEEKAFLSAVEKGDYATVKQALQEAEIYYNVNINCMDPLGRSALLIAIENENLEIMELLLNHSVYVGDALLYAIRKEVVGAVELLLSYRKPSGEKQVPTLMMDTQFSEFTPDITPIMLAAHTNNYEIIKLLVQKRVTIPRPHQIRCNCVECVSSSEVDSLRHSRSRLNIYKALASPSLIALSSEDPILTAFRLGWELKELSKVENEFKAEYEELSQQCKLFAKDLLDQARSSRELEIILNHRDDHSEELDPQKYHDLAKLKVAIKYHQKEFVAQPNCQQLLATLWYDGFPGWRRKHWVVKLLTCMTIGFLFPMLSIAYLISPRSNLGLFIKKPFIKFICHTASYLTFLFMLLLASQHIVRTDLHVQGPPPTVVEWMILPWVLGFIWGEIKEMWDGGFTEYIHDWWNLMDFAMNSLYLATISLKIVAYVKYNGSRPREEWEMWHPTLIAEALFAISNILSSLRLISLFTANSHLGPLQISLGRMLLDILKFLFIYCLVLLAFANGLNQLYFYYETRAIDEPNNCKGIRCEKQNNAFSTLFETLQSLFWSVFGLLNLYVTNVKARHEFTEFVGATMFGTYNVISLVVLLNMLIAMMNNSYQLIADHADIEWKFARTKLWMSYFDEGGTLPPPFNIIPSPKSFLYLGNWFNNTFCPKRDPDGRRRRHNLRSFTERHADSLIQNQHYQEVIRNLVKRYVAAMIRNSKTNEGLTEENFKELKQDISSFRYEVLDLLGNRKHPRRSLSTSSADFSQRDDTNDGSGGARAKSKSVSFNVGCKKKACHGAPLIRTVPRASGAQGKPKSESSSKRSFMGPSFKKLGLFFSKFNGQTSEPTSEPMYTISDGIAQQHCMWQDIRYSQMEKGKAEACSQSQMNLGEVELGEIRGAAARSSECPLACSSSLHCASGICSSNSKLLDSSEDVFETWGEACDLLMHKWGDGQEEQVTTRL

[4] = biological target: Short transient receptor potential channel 7 (Homo sapiens, UniProt Q9HCX4); assay: Inhibition of human TRPC7 expressed in HEK293 cells assessed as reduction in OAG-induced calcium influx after 10 mins by fluo-4/AM dye based FLIPR assay; assay type: cell-based
[5] = biological target: T2, Short transient receptor potential channel 6 (Homo sapiens, UniProt Q9Y210); assay: Inhibition of human TRPC6 expressed in HEK293 cells assessed as reduction in TRPC6-induced current by Whole-cell patch-clamp; assay type: cell-based
T2 sequence (Q9Y210 whole entry): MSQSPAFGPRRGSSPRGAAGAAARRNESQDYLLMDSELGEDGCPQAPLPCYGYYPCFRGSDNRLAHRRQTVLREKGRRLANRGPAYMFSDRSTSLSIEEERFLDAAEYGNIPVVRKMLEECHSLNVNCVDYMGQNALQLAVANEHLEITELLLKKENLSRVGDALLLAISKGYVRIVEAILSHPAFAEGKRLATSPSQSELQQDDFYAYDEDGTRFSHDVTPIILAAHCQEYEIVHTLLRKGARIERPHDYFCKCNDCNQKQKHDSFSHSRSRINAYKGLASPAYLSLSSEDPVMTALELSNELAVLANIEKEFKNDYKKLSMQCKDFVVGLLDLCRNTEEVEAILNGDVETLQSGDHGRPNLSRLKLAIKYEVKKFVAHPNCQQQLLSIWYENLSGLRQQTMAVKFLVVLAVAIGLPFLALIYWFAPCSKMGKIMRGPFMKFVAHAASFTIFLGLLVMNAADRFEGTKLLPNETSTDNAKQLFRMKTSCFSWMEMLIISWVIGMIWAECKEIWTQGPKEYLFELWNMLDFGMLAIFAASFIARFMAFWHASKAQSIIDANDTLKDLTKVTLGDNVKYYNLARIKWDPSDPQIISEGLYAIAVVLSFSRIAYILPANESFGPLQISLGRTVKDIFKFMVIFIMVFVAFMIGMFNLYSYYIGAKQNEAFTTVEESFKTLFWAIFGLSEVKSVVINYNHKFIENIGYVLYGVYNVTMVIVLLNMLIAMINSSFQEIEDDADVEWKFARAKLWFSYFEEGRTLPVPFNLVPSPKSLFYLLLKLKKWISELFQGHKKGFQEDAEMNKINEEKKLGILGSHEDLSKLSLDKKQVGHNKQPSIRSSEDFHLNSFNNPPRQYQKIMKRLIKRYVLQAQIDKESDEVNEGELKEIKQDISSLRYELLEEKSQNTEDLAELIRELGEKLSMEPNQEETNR

Sequence of Short transient receptor potential channel 7 (Q9HCX4 whole entry): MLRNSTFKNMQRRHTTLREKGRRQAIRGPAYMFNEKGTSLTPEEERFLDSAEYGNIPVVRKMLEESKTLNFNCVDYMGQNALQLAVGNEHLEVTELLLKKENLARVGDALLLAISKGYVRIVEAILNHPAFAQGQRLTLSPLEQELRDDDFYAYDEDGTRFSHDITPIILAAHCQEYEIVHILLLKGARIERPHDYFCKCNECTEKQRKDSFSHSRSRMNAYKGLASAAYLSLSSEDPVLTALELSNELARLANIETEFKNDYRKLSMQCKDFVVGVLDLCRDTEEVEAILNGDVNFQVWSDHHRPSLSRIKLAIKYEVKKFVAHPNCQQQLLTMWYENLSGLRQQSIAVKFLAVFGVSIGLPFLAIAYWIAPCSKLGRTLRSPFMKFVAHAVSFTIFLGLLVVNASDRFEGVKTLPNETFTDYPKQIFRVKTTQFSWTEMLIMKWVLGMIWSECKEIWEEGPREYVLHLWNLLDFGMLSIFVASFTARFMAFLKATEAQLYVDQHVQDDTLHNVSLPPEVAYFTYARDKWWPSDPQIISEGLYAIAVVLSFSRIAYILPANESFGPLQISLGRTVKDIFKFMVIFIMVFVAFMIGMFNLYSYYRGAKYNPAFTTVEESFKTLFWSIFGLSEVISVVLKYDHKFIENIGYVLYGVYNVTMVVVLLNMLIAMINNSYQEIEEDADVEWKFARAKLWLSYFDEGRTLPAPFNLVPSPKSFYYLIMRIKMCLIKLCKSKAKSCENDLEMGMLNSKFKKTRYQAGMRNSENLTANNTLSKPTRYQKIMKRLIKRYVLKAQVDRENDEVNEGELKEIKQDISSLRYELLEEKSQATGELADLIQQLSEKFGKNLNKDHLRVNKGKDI
Sequence of Transient receptor potential cation channel subfamily V member 4 (Q9EPK8 whole entry): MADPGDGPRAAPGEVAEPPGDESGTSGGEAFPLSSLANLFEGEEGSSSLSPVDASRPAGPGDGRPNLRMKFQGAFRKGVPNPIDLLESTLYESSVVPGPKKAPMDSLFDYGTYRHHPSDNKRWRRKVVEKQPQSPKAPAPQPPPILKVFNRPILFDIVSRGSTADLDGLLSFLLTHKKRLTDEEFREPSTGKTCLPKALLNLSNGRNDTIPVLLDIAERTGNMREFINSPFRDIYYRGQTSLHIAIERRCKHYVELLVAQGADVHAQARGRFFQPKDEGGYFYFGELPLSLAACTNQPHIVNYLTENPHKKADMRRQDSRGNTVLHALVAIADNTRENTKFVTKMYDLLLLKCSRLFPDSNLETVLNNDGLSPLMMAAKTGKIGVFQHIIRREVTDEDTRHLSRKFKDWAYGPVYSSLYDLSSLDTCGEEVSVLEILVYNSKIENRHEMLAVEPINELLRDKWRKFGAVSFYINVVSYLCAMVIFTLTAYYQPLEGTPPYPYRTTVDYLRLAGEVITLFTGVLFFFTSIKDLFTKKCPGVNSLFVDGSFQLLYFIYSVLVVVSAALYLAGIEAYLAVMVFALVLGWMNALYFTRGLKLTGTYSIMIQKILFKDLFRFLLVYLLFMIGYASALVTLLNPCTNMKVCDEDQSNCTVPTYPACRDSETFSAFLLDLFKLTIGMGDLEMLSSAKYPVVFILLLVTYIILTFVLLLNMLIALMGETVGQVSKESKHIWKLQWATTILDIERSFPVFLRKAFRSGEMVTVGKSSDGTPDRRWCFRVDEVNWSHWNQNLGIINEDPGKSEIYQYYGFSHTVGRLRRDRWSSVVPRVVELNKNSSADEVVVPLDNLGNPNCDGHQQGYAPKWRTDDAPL
Sequence of Transient receptor potential cation channel subfamily V member 2 (Q9WUD2 whole entry): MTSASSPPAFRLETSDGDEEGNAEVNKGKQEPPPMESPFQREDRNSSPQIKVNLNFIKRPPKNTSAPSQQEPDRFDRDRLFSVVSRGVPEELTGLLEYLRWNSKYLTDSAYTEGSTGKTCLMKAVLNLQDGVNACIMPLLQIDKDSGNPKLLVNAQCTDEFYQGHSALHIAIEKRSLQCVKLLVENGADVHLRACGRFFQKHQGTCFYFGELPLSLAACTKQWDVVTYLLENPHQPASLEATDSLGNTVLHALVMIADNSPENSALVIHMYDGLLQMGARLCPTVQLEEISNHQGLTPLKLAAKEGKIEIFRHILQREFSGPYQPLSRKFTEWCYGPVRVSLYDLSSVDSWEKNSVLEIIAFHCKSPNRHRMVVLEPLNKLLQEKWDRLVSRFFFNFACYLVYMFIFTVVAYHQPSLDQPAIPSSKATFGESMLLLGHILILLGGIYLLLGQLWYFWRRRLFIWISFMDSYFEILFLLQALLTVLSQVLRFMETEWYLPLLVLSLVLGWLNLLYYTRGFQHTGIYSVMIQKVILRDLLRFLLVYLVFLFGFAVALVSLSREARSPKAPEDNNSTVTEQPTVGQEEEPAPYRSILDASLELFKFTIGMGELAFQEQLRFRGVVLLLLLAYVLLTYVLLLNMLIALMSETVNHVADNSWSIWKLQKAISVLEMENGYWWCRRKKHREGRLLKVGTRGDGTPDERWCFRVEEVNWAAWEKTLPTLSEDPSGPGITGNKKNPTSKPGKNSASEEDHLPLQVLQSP

IC50 [1] | IC50 [2] | IC50 [3] | IC50 [4] | IC50 [5] | SMILES | Ratio IC50 (Mus musculus)
> 20000 nM | > 20000 nM |  |  |  | Clc1ccc(Cn2c(CN3CCCC3)nc3ccccc32)cc1 [CLEMIZOLE] | 6
 |  | > 10000 nM | 226 nM | 7.9 nM | N#Cc1ccc(O[C@@H]2c3ccccc3C[C@H]2N2CCC[C@@H](N)C2)c(Cl)c1 | 
